Patent US20250367166A1, “NEXT GENERATION DIPROVOCIMS THAT ACTIVATE THE INNATE AND ADAPTIVE IMMUNE RESPONSE” (The Scripps Research Institute, priority 2022, published 2025)
Read-outs that look alike come from different tables or passages of the source.

Legend:
[1] = In vivo adjuvant activity, i.m. co-administration with ovalbumin; details: for adjuvant activity in mice (CD4- and CD-8-dependent responses): with OVA, i.m.
Experimental: C57BL/6J mice were purchased from The Jackson Laboratory. All study procedures using mice were approved by the Institutional Animal Care and Use Committee (IACUC) of the University of Texas Southwestern Medical Center and were conducted in accordance with institutionally approved protocols and guidelines for animal care and use. All the mice were maintained at the University of Texas Southwestern Medical Center in accordance with institutionally approved protocols.
EndoFit ovalbumin (OVA) with >98% purity minimum (SDS-PAGE) and endotoxin levels <1 EU/mg was purchased from Invivogen.

[2] = target: T1, TLR1/TLR2 (Mus musculus, UniProt Q9EPQ1+Q9QUN7); details: cited from earlier work
[3] = tested on: SIINFEKL-loaded C57BL/6J splenocytes; experiment: In vivo CTL assay after i.m. immunization with OVA plus diprovocim; design: species or system C57BL/6J mice; details: 200 μg diprovocim + 100 μg OVA, 9 days after initial immunization and 9 days after boost
Experimental: (§1) Mice were injected i.m. on day 0 and day 28 (FIG. 1) with 100 μg OVA alone, or 100 μg OVA mixed with vehicle (DMSO:Tween 80:saline=1:1:8), or mixed with 200 μg diprovocim-1 (TNF-α 1) or diprovocim-X (TNF-α 35) per mouse. EndoFit ovalbumin (OVA) with >98% purity minimum (SDS-PAGE) and endotoxin levels <1 EU/mg was purchased from Invivogen.
On day 9 and day 37 (FIG. 1), naive C57BL/6J mice were killed, and splenocytes were collected. […] The unpulsed and peptide-pulsed cells were labeled, respectively, with […] (“low”) or […] (“high”) CellTrace Violet (Invitrogen) in serum-free medium for 20 min. Equal numbers (2×10^6) of CellTrace Violet^high (OVA pulsed) and CellTrace Violet^low (unpulsed) cells were mixed together and injected intravenously into the immunized mice.
After 48 h, blood from treated mice was collected and subjected to flow cytometry analysis. The numbers of remaining live CellTrace Violet^high and CellTrace Violet^low cells were determined and used to calculate the percentage of OVA peptide-pulsed target cells killed. Specific killing was defined as the ratio=CellTrace Violet^low cells/CellTrace Violet^high cells. The percentage of target cell lysis=[1−unimmunized ratio/immunized ratio]×100.

[4] = tested on: B16-OVA melanoma; experiment: Tumor growth assay, B16-OVA melanoma in immunized mice; assay type: in vivo, C57BL/6J mice; details: inoculation 10 days after the second challenge; anti-mPD-L1 i.p.
Experimental: as §1
B16-OVA cells (B16F10 melanoma cells stably expressing chicken ovalbumin) were grown in DMEM containing 10% vol/vol FBS. On day 38 (FIG. 1), a total of 2×10^5 B16-OVA cells in 100 μL PBS were injected s.c. into the right flank of 17 week-old male C57BL/6J mice to establish tumors. On days 41, 44, and 47, the mice were injected i.p. with 200 μg checkpoint inhibitor (anti-mPD-L1, BioXcell) in 100 μL saline. Tumors were measured with a digital caliper (Fisher) and the tumor sizes were calculated using the following formula: volume=0.5×length×width^2. Mice were sacrificed when the tumor length or width reached 2 cm.

[5] = target: T2, TLR1/TLR2 (Homo sapiens, UniProt O60603+Q15399); details: table of b113, in parentheses; cited from earlier work
[6] = tested on: OVA-specific IgG, IgG1, or IgG2b; experiment: Antibody response assay: serum OVA-specific IgG, IgG1, IgG2b by ELISA; assay type: in vivo, C57BL/6J mice; details: 14 days after a single immunization, with OVA
Experimental: as §1
On day 14 (FIG. 1), serum titers of OVA-specific IgG, IgG1, or IgG2b (SouthernBiotech) were measured by ELISA. Nunc MaxiSorp flat-bottom 96-well microplates (Thermo Fisher Scientific) were coated with 5 μg/mL soluble OVA (Invivogen) and incubated at 4° C. overnight (ca. 18 h). Plates were washed four times with washing buffer (0.05% [vol/vol] Tween-20 in PBS), then blocked with 1% (vol/vol) BSA in PBS for 1 h at room temperature. Serum samples diluted in 1% (vol/vol) BSA were added to the prepared plates and incubated for 2 h. The plates were washed eight times with washing buffer and then incubated with HRP-conjugated goat anti-mouse IgG, IgG1, or IgG2b for 1 h at room temperature. Plates were washed eight times with washing buffer, then developed with SureBlue TMB Microwell Peroxidase Substrate and TMB Stop Solution (KPL). Absorbance was measured at 450 nm on a Synergy Neo2 Plate Reader (BioTek).

[7] = tested on: B16-OVA melanoma; details: background; diprovocim/OVA i.m.; cited from earlier work
[8] = background; cited from earlier work
[9] = target: T1, TLR1/TLR2; experiment: TNF-α release from thioglycolate-elicited mouse peritoneal macrophages (ELISA)
Experimental: Thioglycolate-elicited macrophages were recovered 4 days after i.p. injection of 2 mL BBL thioglycolate medium, brewer modified (4%; BD Biosciences) by peritoneal lavage with 5 mL phosphate buffered saline (PBS). […] Cells were seeded onto 96-well plates at 1×10^3 cells per well and treated with systematically varied concentrations of the candidate compounds (dissolved in DMSO, and final assay DMSO concentrations (0.5%) were kept constant in all experiments) for 4 h. Ultra-pure LPS (dissolved in H2O, Enzo Life Sciences) was assessed alongside the compounds as a positive control and DMSO treated controls. […] Mouse TNF-α in the supernatants was measured by ELISA kits according to the manufacturer's instructions (eBioscience). EC50's were calculated by Graphpad Prism. All data is mean of duplicates and SD is within ±10% of mean. Mouse cells were from wild type C57BL/6J mice.

[10] = target: T2, TLR1/TLR2; experiment: TNF-α release from PMA-differentiated human THP-1 cells (ELISA);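 note: cells exposed to graded compound concentrations for 4 h, TNF-α quantified in supernatant, LPS as positive and DMSO as negative control, values are duplicate means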

T2 sequence (Q15399 25-786): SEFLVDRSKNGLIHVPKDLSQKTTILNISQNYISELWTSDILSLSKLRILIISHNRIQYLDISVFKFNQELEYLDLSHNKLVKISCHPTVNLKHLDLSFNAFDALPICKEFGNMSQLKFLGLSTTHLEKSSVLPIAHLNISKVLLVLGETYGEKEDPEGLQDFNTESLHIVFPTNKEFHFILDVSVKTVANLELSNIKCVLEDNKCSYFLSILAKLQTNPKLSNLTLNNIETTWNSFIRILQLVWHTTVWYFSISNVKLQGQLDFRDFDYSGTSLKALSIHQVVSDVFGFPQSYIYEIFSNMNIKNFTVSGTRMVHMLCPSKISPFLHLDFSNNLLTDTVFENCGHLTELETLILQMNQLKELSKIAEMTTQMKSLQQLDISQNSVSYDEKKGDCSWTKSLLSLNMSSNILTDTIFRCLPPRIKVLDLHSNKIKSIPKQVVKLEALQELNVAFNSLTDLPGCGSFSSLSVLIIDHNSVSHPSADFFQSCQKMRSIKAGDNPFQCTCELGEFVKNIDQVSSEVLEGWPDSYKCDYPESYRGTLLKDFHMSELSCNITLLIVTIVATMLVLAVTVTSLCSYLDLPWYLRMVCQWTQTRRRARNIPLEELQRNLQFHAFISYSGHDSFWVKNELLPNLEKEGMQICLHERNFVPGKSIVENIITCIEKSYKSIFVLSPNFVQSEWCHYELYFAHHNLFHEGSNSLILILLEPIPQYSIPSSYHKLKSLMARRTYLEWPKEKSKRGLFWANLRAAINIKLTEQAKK
T2 sequence (O60603 21-784): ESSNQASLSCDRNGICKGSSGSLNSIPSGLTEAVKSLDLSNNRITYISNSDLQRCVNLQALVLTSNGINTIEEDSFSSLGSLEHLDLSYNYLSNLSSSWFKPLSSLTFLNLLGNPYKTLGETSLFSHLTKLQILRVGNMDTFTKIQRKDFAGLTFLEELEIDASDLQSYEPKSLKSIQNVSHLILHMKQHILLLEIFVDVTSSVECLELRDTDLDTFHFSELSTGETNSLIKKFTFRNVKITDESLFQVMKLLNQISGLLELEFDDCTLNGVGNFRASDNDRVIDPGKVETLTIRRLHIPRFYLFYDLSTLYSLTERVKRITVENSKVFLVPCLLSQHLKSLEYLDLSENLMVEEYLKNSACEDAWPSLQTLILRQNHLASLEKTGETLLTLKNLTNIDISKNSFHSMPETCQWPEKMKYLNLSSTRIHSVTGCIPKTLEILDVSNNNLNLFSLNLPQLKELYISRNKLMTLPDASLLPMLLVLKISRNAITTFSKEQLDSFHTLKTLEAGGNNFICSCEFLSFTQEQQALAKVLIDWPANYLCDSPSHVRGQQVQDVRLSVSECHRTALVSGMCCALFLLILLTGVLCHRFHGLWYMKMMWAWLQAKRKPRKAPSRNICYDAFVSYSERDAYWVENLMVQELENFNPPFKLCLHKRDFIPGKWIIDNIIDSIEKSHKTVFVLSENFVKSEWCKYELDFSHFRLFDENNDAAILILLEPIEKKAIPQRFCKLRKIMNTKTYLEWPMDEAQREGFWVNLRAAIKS
T1 sequence (Q9EPQ1 26-795): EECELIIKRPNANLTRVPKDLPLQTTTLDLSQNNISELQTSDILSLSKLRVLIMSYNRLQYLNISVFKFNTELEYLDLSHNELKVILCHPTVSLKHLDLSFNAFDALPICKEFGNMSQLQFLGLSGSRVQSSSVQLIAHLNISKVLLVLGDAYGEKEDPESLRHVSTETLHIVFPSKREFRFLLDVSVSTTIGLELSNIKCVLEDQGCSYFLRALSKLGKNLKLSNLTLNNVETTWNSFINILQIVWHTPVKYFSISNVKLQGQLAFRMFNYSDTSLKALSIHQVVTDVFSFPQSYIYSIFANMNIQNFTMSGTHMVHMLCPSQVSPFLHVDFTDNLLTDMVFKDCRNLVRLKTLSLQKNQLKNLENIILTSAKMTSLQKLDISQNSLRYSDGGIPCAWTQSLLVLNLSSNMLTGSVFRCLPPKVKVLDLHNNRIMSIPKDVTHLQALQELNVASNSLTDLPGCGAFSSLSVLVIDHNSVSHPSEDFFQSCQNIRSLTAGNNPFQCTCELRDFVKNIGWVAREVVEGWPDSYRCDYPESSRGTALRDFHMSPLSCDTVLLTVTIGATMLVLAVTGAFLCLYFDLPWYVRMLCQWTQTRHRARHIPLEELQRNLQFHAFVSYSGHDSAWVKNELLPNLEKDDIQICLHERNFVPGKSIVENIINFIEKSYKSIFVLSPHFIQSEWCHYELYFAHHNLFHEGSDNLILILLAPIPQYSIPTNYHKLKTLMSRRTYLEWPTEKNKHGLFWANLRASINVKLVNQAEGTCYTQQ
T1 sequence (Q9QUN7 25-784): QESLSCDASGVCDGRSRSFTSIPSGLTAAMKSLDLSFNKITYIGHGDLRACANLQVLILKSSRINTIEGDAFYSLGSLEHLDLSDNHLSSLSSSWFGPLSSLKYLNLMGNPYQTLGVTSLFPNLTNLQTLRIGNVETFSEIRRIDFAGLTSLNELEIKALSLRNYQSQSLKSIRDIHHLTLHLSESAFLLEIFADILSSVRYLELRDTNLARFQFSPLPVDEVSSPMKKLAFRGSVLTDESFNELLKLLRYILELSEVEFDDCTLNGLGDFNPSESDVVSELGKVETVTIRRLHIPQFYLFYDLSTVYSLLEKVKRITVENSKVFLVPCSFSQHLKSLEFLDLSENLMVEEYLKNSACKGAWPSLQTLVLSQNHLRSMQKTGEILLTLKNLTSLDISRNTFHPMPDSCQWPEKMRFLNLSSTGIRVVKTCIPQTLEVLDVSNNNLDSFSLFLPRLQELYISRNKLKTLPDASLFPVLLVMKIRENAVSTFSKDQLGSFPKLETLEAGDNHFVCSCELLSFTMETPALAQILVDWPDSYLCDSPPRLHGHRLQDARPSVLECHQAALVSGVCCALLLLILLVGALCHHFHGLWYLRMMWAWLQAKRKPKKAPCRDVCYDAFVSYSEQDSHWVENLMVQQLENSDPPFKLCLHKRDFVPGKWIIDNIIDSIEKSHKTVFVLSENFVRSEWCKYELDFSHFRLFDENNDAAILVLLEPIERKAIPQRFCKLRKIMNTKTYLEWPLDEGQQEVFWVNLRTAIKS

In the case of `O=C(N[C@H]1C[C@@H]1c1ccccc1)[C@@H]1CN(C(=O)c2ccc(C(=O)N3C[C@@H](C(=O)N[C@H]4C[C@@H]4c4ccccc4)[C@H](C(=O)N[C@H]4C[C@@H]4c4ccccc4)C3)cc2)C[C@H]1C(=O)N[C@H]1C[C@@H]1c1ccccc1` [Compound 1, reference compound], the “overt toxicity when used as an adjuvant” value ([1]; compared with LPS administration) is listed as “did not display the overt toxicity”, the “adjuvant activity in mice (CD4- and CD-8-dependent responses)” value [1] is listed as “comparable adjuvant activity” and the “Efficacy (magnitude) of response versus diprovocim-1 (100%), mouse macrophages” value (shortened to “Efficacy (magnitude) … (100%), mouse macrophages”) ([2]; table of b113, in parentheses) is listed as 100%. The “in vivo cytotoxicity against OVA peptide-loaded C57BL/6J splenocytes (CTL, FIG. 2A)” value [3] was “induced strong in vivo cytotoxicity”, the “Resistance to B16-OVA melanoma (FIG. 2B)” value [4] was “notably enhanced” and the “Efficacy (magnitude) of response versus diprovocim-1 (100%), THP-1” value (shortened to “Efficacy (magnitude) … (100%), THP-1”) [5] was 100%. For the same molecule, the “OVA-specific circulating antibodies of different subtypes by ELISA (FIGS. 3A-3C)” value [6] was “strong responses”, the “effect of combination with anti-PD-L1 on B16-OVA tumors in mice” value [7] was “eradicated tumors” and the “adjuvant activity in mice when co-administered i.m. with ovalbumin” value [8] was “effective adjuvant”.
In the case of `O=C(O)[C@@H]1CN(C(=O)c2ccc(C(=O)N3C[C@@H](C(=O)N[C@H]4C[C@@H]4c4ccccc4)[C@H](C(=O)N[C@H]4C[C@@H]4c4ccccc4)C3)cc2)C[C@H]1C(=O)N[C@H]1C[C@@H]1c1ccccc1` [Compound 2], the EC50 ([2]; table of b113, prior observation ref 15, read-out: EC50 (nM) (mouse): EC50 TNF-α release from mouse macrophages) is listed as > 5000 nM and the “Efficacy (magnitude) … (100%), THP-1” value [5] is listed as 110%.
With `CC(C)(C)OC(=O)NCC(=O)OCCCCCCCCCCCCNC(=O)[C@@H]1CN(C(=O)c2ccc(C(=O)N3C[C@@H](C(=O)N[C@H]4C[C@@H]4c4ccccc4)[C@H](C(=O)N[C@H]4C[C@@H]4c4ccccc4)C3)cc2)C[C@H]1C(=O)N[C@H]1C[C@@H]1c1ccccc1` [Compound 35, 12-((3S,4S)-1-(4-((3S,4S)-3,4-Bis(((1S,2R)-2-phenylcyclopropyl)carbamoyl)-pyrrolidine-1-carbonyl)benzoyl)-4-(((1S,2R)-2-phenyl-cyclopropyl)carbamoyl)-pyrrolidine-3-carboxamido)-dodecyl-2-((tert-butoxycarbonyl)-amino)acetate] the “adjuvant activity in mice (CD4- and CD-8-dependent responses)” value [1] was “matching or surpassing the activity of diprovocim-1”, the “efficacy relative to that of diprovocim-1 in mouse macrophages” value [9] was 550% and the “fold more active than diprovocim-1 in mouse macrophages” value [9] was 2 fold. The “Efficacy (magnitude) … (100%), mouse macrophages” value ([9]; Table 3, in parentheses) was 550%, the “Efficacy (magnitude) … (100%), mouse macrophages” value ([9]; Table 5, in parentheses) was 550% and the “Efficacy (magnitude) … (100%), mouse macrophages” value ([9]; Table 6, in parentheses) was 550%. For the same molecule, the EC50 ([9]; read-out: EC50 (nM) (mouse): EC50 TNF-α release from mouse macrophages, Table 3) was 0.75 nM, the EC50 ([9]; read-out: EC50 (nM) (mouse): EC50 TNF-α release from mouse macrophages, Table 5) was 0.75 nM and the EC50 ([9]; read-out: EC50 (nM) (mouse): EC50 TNF-α release from mouse macrophages, Table 6) was 0.75 nM. The EC50 ([9]; read-out: EC50 in mouse macrophages) was 0.75 nM, the “in vivo cytotoxicity against OVA peptide-loaded C57BL/6J splenocytes (CTL, FIG. 2A)” value [3] was “induced strong in vivo cytotoxicity” and the “Resistance to B16-OVA melanoma (FIG. 2B)” value [4] was “notably enhanced”. For the same molecule, the “OVA-specific circulating antibodies of different subtypes by ELISA (FIGS. 3A-3C)” value [6] was “strong responses”, the “efficacy relative to that of diprovocim-1 in human THP-1 cells” value [10] was 100% and the “Efficacy (magnitude) … (100%), THP-1” value ([10]; Table 3, in parentheses) was 100%. For the same molecule, the “Efficacy (magnitude) … (100%), THP-1” value ([10]; Table 5, in parentheses) was 100%, the “Efficacy (magnitude) … (100%), THP-1” value ([10]; Table 6, in parentheses) was 100% and the EC50 ([10]; read-out: EC50 (nM) (THP-1): EC50 TNF-α release from human THP-1 cells, Table 3) was 0.14 nM. For the same molecule, the EC50 ([10]; read-out: EC50 (nM) (THP-1): EC50 TNF-α release from human THP-1 cells, Table 5) was 0.14 nM, the EC50 ([10]; read-out: EC50 (nM) (THP-1): EC50 TNF-α release from human THP-1 cells, Table 6) was 0.14 nM and the EC50 ([10]; read-out: EC50 in human THP-1 cells) was 0.14 nM.
